Active and inactive are the calls of the source. No cut-off for these calls is given here.
Experiments:
RAW264.7 [1] = experiment: Inhibition of RANKL-induced osteoclast differentiation in mouse RAW264.7 cells at 5 uM incubated for 4 days with media replacement for every 2 days by TRAP-staining based light microscopic analysis; format: functional, cell-based; details: time 4.0 day
RAW264.7 [2] = experiment: Cytotoxicity against mouse RAW264.7 cells assessed as cell destruction at 5 uM incubated for 48 hrs by MTT assay; format: toxicity, cell-based; details: raw264.7, 48 h

**Q.** What does the source list for CC(C)(OCC(F)(F)F)C([Se]c1ccccc1)C(=O)Nc1ccc(Br)cc1 (configuration not stated)?
**A.** inhibition (RAW264.7 [1]): Active; Activity (RAW264.7 [2]): Non-Toxic

**Q.** Which inhibition (RAW264.7 [1]) does the source give for COc1ccc([Se]C(C(=O)Nc2ccccc2)C(C)(C)OCC(F)(F)F)cc1 (configuration not stated) here?
**A.** Active

**Q.** And the Activity (RAW264.7 [2])?
**A.** Non-Toxic

**Q.** With CC(C)(OCC(F)(F)F)C([Se]c1ccccc1)C(=O)Nc1ccc(I)cc1 (configuration not stated) as the molecule, how does the inhibition (RAW264.7 [1]) read?
**A.** Active

**Q.** And the Activity (RAW264.7 [2])?
**A.** Non-Toxic

**Q.** What does the source list for Cc1cccc([Se]C(C(=O)Nc2ccccc2)C(C)(C)OCC(F)(F)F)c1 (configuration not stated)?
**A.** inhibition (RAW264.7 [1]): Active; Activity (RAW264.7 [2]): Non-Toxic

**Q.** CC(C)(OCC(F)(F)F)C([Se]c1ccccc1)C(=O)Nc1ccnc(F)c1 (configuration not stated) was tested. Which Activity (RAW264.7 [2]) did it give?
**A.** Non-Toxic

**Q.** Which inhibition (RAW264.7 [1]) does the source give for CC(C)(OCC(F)(F)F)C([Se]c1ccc2c(c1)OCO2)C(=O)Nc1ccccc1 (configuration not stated) here?
**A.** Active

**Q.** And the Activity (RAW264.7 [2])?
**A.** Non-Toxic

**Q.** CC(C)(OCC(F)(F)F)C([Se]c1ccccc1Cl)C(=O)Nc1ccccc1 (configuration not stated) was tested. Which inhibition (RAW264.7 [1]) did it give?
**A.** Active

**Q.** What about the Activity (RAW264.7 [2]) of the same molecule?
**A.** Non-Toxic

**Q.** For CC(C)(OCC(F)(F)F)C([Se]c1ccccc1)C(=O)NC1CCCCC1 (configuration not stated), which inhibition (RAW264.7 [1]) is on record?
**A.** Active

**Q.** And the Activity (RAW264.7 [2])?
**A.** Non-Toxic

**Q.** With COc1cc(NC(=O)C([Se]c2ccccc2)C(C)(C)OCC(F)(F)F)ccn1 (configuration not stated) as the molecule, how does the Activity (RAW264.7 [2]) read?
**A.** Non-Toxic

**Q.** For CC(C)(OCC(F)(F)F)C([Se]c1ccccc1)C(=O)Nc1cccc(F)c1 (configuration not stated), which inhibition (RAW264.7 [1]) is on record?
**A.** Active

**Q.** And the Activity (RAW264.7 [2])?
**A.** Non-Toxic

**Q.** Which results are given for COc1ccc(NC(=O)C([Se]c2ccccc2)C(C)(C)OCC(F)(F)F)cc1 (configuration not stated)?
**A.** inhibition (RAW264.7 [1]): Active; Activity (RAW264.7 [2]): Non-Toxic

**Q.** How did the Activity (RAW264.7 [2]) turn out when CCOC(C)(C)C([Se]c1ccccc1)C(=O)Nc1ccccc1 (configuration not stated) was run?
**A.** Non-Toxic

**Q.** How did the Activity (RAW264.7 [2]) turn out when CC(C)(OCC(F)(F)F)C([Se]c1ccccc1)C(=O)Nc1ccnc(Cl)c1 (configuration not stated) was run?
**A.** Non-Toxic

**Q.** Which Activity (RAW264.7 [2]) does the source give for Cc1ccccc1[Se]C(C(=O)Nc1ccccc1)C(C)(C)OCC(F)(F)F (configuration not stated) here?
**A.** Non-Toxic

**Q.** CC(C)(OCC(F)(F)F)C([Se]c1ccc(Br)cc1)C(=O)Nc1ccccc1 (configuration not stated) was tested. Which inhibition (RAW264.7 [1]) did it give?
**A.** Active

**Q.** And the Activity (RAW264.7 [2])?
**A.** Non-Toxic

**Q.** For CC(C)(OCC(F)(F)F)C([Se]c1ccccc1)C(=O)Nc1cnc2ccccc2c1 (configuration not stated), which inhibition (RAW264.7 [1]) is on record?
**A.** Active

**Q.** And the Activity (RAW264.7 [2])?
**A.** Non-Toxic

**Q.** Which results are given for COc1ccccc1NC(=O)C([Se]c1ccccc1)C(C)(C)OCC(F)(F)F (configuration not stated)?
**A.** inhibition (RAW264.7 [1]): Active; Activity (RAW264.7 [2]): Non-Toxic

**Q.** How did the inhibition (RAW264.7 [1]) turn out when Cc1cc(Cl)ccc1NC(=O)C([Se]c1ccccc1)C(C)(C)OCC(F)(F)F (configuration not stated) was run?
**A.** Active

**Q.** And the Activity (RAW264.7 [2])?
**A.** Non-Toxic

**Q.** How did the inhibition (RAW264.7 [1]) turn out when CC(C)(OCC(F)(F)F)C([Se]c1ccccc1F)C(=O)Nc1ccccc1 (configuration not stated) was run?
**A.** Active

**Q.** What about the Activity (RAW264.7 [2]) of the same molecule?
**A.** Non-Toxic

**Q.** Cc1cnccc1NC(=O)C([Se]c1ccccc1)C(C)(C)OCC(F)(F)F (configuration not stated) was tested. Which Activity (RAW264.7 [2]) did it give?
**A.** Non-Toxic

**Q.** How did the Activity (RAW264.7 [2]) turn out when CC(C)(OCC(F)(F)F)C([Se]c1ccccc1)C(=O)Nc1ccccc1 (configuration not stated) was run?
**A.** Non-Toxic

**Q.** Which Activity (RAW264.7 [2]) does the source give for Cc1cc(NC(=O)C([Se]c2ccccc2)C(C)(C)OCC(F)(F)F)ccn1 (configuration not stated) here?
**A.** Non-Toxic

**Q.** CC(C)(OCC(F)(F)F)C([Se]c1ccccc1)C(=O)Nc1ccnc(Br)c1 (configuration not stated) was tested. Which Activity (RAW264.7 [2]) did it give?
**A.** Non-Toxic

**Q.** CC(C)(OCC(F)(F)F)C([Se]c1ccccc1)C(=O)Nc1cccnc1 (configuration not stated) was tested. Which Activity (RAW264.7 [2]) did it give?
**A.** Non-Toxic

**Q.** For CC(C)(OCC(F)(F)F)C([Se]c1ccccc1)C(=O)Nc1cccc(Cl)c1 (configuration not stated), which inhibition (RAW264.7 [1]) is on record?
**A.** Active

**Q.** What about the Activity (RAW264.7 [2]) of the same molecule?
**A.** Non-Toxic

**Q.** With CCCC[Se]C(C(=O)Nc1ccccc1)C(C)(C)OCC(F)(F)F (configuration not stated) as the molecule, how does the inhibition (RAW264.7 [1]) read?
**A.** Active

**Q.** What about the Activity (RAW264.7 [2]) of the same molecule?
**A.** Non-Toxic

**Q.** Which results are given for CC(C)(OCC(F)(F)F)C([Se]c1ccccc1Br)C(=O)Nc1ccccc1 (configuration not stated)?
**A.** inhibition (RAW264.7 [1]): Active; Activity (RAW264.7 [2]): Non-Toxic

**Q.** How did the Activity (RAW264.7 [2]) turn out when CC(C)(OCC(F)(F)F)C([Se]c1ccccc1)C(=O)Nc1ccccn1 (configuration not stated) was run?
**A.** Non-Toxic

**Q.** With CC(C)(OCC(F)(F)F)C([Se]c1cccc(Br)c1)C(=O)Nc1ccccc1 (configuration not stated) as the molecule, how does the inhibition (RAW264.7 [1]) read?
**A.** Active

**Q.** And the Activity (RAW264.7 [2])?
**A.** Non-Toxic

**Q.** With COc1ccc([Se]C(C(=O)Nc2ccncc2)C(C)(C)OCC(F)(F)F)cc1 (configuration not stated) as the molecule, how does the Activity (RAW264.7 [2]) read?
**A.** Non-Toxic

**Q.** For COc1ncccc1[Se]C(C(=O)Nc1ccccc1)C(C)(C)OCC(F)(F)F (configuration not stated), which inhibition (RAW264.7 [1]) is on record?
**A.** Active

**Q.** And the Activity (RAW264.7 [2])?
**A.** Non-Toxic

**Q.** For CC(C)(OCC(F)(F)F)C([Se]c1ccc(F)cc1)C(=O)Nc1ccccc1 (configuration not stated), which inhibition (RAW264.7 [1]) is on record?
**A.** Active

**Q.** What about the Activity (RAW264.7 [2]) of the same molecule?
**A.** Non-Toxic

**Q.** Which results are given for COc1ccccc1[Se]C(C(=O)Nc1ccccc1)C(C)(C)OCC(F)(F)F (configuration not stated)?
**A.** inhibition (RAW264.7 [1]): Active; Activity (RAW264.7 [2]): Non-Toxic

**Q.** Which results are given for Cc1ccccc1NC(=O)C([Se]c1ccccc1)C(C)(C)OCC(F)(F)F (configuration not stated)?
**A.** inhibition (RAW264.7 [1]): Active; Activity (RAW264.7 [2]): Non-Toxic

**Q.** Which Activity (RAW264.7 [2]) does the source give for CC(C)(OCC(F)(F)F)C([Se]c1ccccc1)C(=O)Nc1ccccc1F (configuration not stated) here?
**A.** Non-Toxic

**Q.** Which inhibition (RAW264.7 [1]) does the source give for CC(C)(OCC(F)(F)F)C([Se]c1cccc(F)c1)C(=O)Nc1ccccc1 (configuration not stated) here?
**A.** Active

**Q.** And the Activity (RAW264.7 [2])?
**A.** Non-Toxic

**Q.** How did the Activity (RAW264.7 [2]) turn out when CC(C)(OCC(F)(F)F)C([Se]c1ccc(F)cc1)C(=O)Nc1ccncc1 (configuration not stated) was run?
**A.** Non-Toxic

**Q.** What does the source list for Cc1ccc([Se]C(C(=O)Nc2ccccc2)C(C)(C)OCC(F)(F)F)cc1 (configuration not stated)?
**A.** inhibition (RAW264.7 [1]): Active; Activity (RAW264.7 [2]): Non-Toxic

Reference: ChEMBL document CHEMBL5543155, “Design, Synthesis, and Biological Evaluation of β-Trifluoroethoxydimethyl Selenides as Potent Antiosteoporosis Agents” (J Med Chem, 2024)
